# Measured values taken from ChEMBL document CHEMBL2029216, “Synthesis and evaluation of [18F]Fluorobutyl ethacrynic amide: a potential PET tracer for studying glutathione transferase” (Bioorg Med Chem Lett, 2012).
# Assays:
# [1] = tested on: A549; assay: Cytotoxicity against human A549 cells; format: functional, cell-based
# [2] = tested on: MCF7; assay: Cytotoxicity against human MCF7 cells; format: functional, cell-based
# [3] = tested on: IMR-90; assay: Cytotoxicity against human IMR90 cells; format: cell-based
# [4] = tested on: Urinary bladder; assay: Drug uptake in mouse bladder after 5 mins; format: ADME, tissue-based; conditions: in vivo
# [5] = tested on: Liver; assay: Drug uptake in mouse liver after 5 mins; format: ADME, tissue-based; conditions: in vivo
# [6] = tested on: Kidney; assay: Drug uptake in mouse kidney after 5 mins; format: ADME, tissue-based; conditions: in vivo
# [7] = Drug uptake in 18 weeks TAA treated rat TAA-induced cholangiocarcinoma model tumor expressing GSTalpha assessed as hot spot using [18F]FDG at 486 uCi/0.23 mL, iv after 30 mins by PET analysis; format: ADME, organism-based, Neoplasm; conditions: in vivo, 0.5 h
# [8] = tested on: Liver; assay: Drug uptake in Sprague-Dawley rat liver expressing GSTalpha assessed as homogeneous distribution of [18F]FBuEA-GSH10 complex at 717 uCi/mL, iv after 120 mins by PET analysis; format: ADME, organism-based; conditions: in vivo, 2 h
# [9] = Drug uptake in TAA-induced cholangiocarcinoma model of rat tumor expressing GSTalpha assessed as cold spot using [18F]FDG at 486 uCi/0.23 mL, iv after 5 days by PET analysis; format: ADME, organism-based, Neoplasm; conditions: in vivo, 120 h
# [10] = Drug uptake in 23 weeks TAA treated rat TAA-induced cholangiocarcinoma model tumor expressing GSTalpha assessed as cold spot using [18F]FDG at 801 uCi/0.23 mL, iv after 5 to 10 mins by PET analysis; format: ADME, organism-based, Neoplasm; conditions: in vivo
# [11] = Octanol-water partition coefficient, Log P of the compound at 12.6 uCi by Shake-flask method; format: physicochemical
# [12] = tested on: Liver; assay: Drug uptake in TAA-induced cholangiocarcinoma model of rat liver expressing GSTalpha assessed as heterogeneous distribution of [18F]FBuEA-GSH10 complex at 569 uCi/0.6 mL, iv after 120 mins by PET analysis; format: ADME, organism-based; conditions: in vivo, 2 h
# [13] = Half life in rat plasma at 6.3 MBq, iv by HPLC analysis; format: ADME, organism-based
# [14] = tested on: Nucleic Acid; assay: Ratio of drug level in tumor to liver in rat TAA-induced cholangiocarcinoma model; format: ADME, tissue-based; conditions: in vivo
compound,measurement,setting,value
C=C(CC)C(=O)c1ccc(OCC(=O)NCCCC)c(Cl)c1Cl,IC50,[1],13 µM
same,IC50,[2],4 µM
C=C(CC)C(=O)c1ccc(OCC(=O)NCCCCF)c(Cl)c1Cl,IC50,[1],8 µM
same,IC50,[3],18 µM
same,IC50,[2],3 µM
C=C(CC)C(=O)c1ccc(OCC(=O)NCCCC[18F])c(Cl)c1Cl,Drug uptake,[4],Active
same,Drug uptake,[5],Active
same,Drug uptake,[6],Active
same,Drug uptake,[7],Active
same,Drug uptake,[8],Active
same,Drug uptake,[9],Active
same,Drug uptake,[10],Active
same,logP,[11],1.47
same,Drug uptake,[12],Active
C=C(CC)C(=O)c1ccc(OCC(=O)O)c(Cl)c1Cl [ETHACRYNIC ACID],half-life,[13],30 min
same,IC50,[1],84 µM
OC[C@H]1O[C@@H](O)[C@H]([18F])[C@@H](O)[C@@H]1O [FLUDEOXYGLUCOSE-F18],Ratio,[14],1.6
